Activity calls are given as the source filed them. The rule behind the calls is not given here.
Experiments:
[1] = biological target: Sonic hedgehog protein (Mus musculus) (UniProt Q62226); assay: Activation of Shh in ptch1 gene-deficient MEF assessed as beta-galactosidase activity after 30 hrs by chemiluminescence assay in presence of 100 nM 3-keto-N-aminoethyl-N'-aminocaproyldihydrocinnamoyl cyclopamine
[2] = biological target: Sonic hedgehog protein (Mus musculus) (UniProt Q62226); assay: Activation of Shh in smo gene-deficient MEF at 0.5 uM after 30 hrs by luciferase reporter assay
Protein smoothened [3] = biological target: T1, Protein smoothened (Homo sapiens, UniProt Q99835); conditions: HEK-293T; 5 uM
T1 sequence (Q99835 whole entry): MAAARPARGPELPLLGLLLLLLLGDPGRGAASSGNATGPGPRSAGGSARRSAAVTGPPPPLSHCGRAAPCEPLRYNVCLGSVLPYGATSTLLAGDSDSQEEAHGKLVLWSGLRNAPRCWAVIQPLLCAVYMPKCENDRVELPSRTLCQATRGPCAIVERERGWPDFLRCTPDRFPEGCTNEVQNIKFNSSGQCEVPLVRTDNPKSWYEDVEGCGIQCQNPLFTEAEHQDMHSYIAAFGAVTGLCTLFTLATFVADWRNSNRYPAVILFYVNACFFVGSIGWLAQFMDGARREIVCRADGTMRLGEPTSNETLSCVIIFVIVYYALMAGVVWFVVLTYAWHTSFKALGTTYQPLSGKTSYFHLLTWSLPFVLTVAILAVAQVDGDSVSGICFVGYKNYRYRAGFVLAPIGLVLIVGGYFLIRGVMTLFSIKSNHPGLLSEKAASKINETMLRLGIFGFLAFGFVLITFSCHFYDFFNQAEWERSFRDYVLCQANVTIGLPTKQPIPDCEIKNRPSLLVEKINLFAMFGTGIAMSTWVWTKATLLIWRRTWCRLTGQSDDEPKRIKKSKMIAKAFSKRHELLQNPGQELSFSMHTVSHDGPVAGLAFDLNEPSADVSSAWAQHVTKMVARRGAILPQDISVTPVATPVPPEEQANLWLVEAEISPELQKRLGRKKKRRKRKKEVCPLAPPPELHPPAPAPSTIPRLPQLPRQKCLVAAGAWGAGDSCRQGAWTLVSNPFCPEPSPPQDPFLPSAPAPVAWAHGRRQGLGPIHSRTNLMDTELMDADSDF
Description: Inhibition of BODIPY-cyclopamine binding to Smo C-terminal cytoplasmic domain expressed in HEK293T cells at 5 uM after 4 hrs by fluorescence microscopy

Protein smoothened [4] = biological target: T1, Protein smoothened; conditions: HEK-293T; 5 uM; remark: listed apart in the source
Description: Inhibition of BODIPY-cyclopamine binding to Smo N-terminal cysteine domain expressed in HEK293T cells at 5 uM after 4 hrs by fluorescence microscopy

Protein smoothened [5] = biological target: T1, Protein smoothened; assay: Inhibition of BODIPY-cyclopamine binding to Smo expressed in HEK293T cells after 1 hr by fluorescence microscopy
[6] = biological target: Sonic hedgehog protein (Mus musculus) (UniProt Q62226); assay: Activation of Shh in mouse Shh Light2 cells assessed as […] after 30 hrs by luciferase reporter gene assay in presence of 100 nM 3-keto-N-aminoethyl-N'-aminocaproyldihydrocinnamoyl cyclopamine; format: functional, cell-based; conditions: Shh Light II
[7] = biological target: Sonic hedgehog protein (Mus musculus) (UniProt Q62226); assay: Activation of Shh in smo-expressing MEF at 0.5 uM after 30 hrs by luciferase reporter assay
[8] = biological target: Sonic hedgehog protein (Mus musculus) (UniProt Q62226); assay: Activation of Shh in mouse Shh Light2 cells assessed as […] at 10 uM after 30 hrs by luciferase reporter gene assay in presence of 1000 to 10000 nM 3-keto-N-aminoethyl-N'-aminocaproyldihydrocinnamoyl cyclopamine; format: functional, cell-based; conditions: Shh Light II
[9] = biological target: Sonic hedgehog protein (Mus musculus) (UniProt Q62226); assay: Activation of Shh in mouse Shh Light2 cells assessed as […] at 1 uM after 30 hrs by luciferase reporter gene assay in presence of 1000 to 10000 nM 3-keto-N-aminoethyl-N'-aminocaproyldihydrocinnamoyl cyclopamine; format: functional, cell-based; conditions: Shh Light II

CC1=C2C[C@H]3[C@@H](CC=C4C[C@@H](O)CC[C@@]43C)[C@@H]2CC[C@]12O[C@@H]1C[C@H](C)CN[C@H]1[C@H]2C
Activity [1]: Active

CN[C@H]1CC[C@H](N(Cc2cccc(-c3ccncc3)c2)C(=O)c2sc3ccccc3c2Cl)CC1
Activity [1]: Active

c1ccc2c(Oc3nc(Nc4ccc(N5CCOCC5)cc4)c4ncn(C5CCCCC5)c4n3)cccc2c1 [PURMORPHAMINE]
Activity [2]: inactive | inhibition (Protein smoothened [3]): Active | inhibition (Protein smoothened [4]): Active | IC50 (Protein smoothened [5]): 1.5 µM | Activity [6]: Active | Activity [1]: Active | Activity [7]: Active

CC1=C2C[C@H]3[C@@H](CC=C4CC(=O)CC[C@@]43C)[C@@H]2CC[C@]12O[C@@H]1C[C@H](C)CN(CCNC(=O)CCCCCNC(=O)CCc3ccccc3)[C@H]1[C@H]2C
Activity [8]: Active | Activity [9]: Active

Source: ChEMBL document CHEMBL1221175, “Purmorphamine activates the Hedgehog pathway by targeting Smoothened” (Nat Chem Biol, 2006)
